As a reminder, the IC50 is the concentration that gives 50% inhibition.

Data on two compounds can be found in ChEMBL document CHEMBL3046910, “Synthesis and pharmacological evaluation of antioxidant chalcone derivatives of 2(3H)-benzoxazolones” (Med Chem Res, 2009).

What all share (format): functional
Assay [1] can be described thus: Antioxidant activity assessed as inhibition of copper-mediated LDL oxidation by FPLC method relative to probucol.
Assay [2] can be described thus: Antioxidant activity assessed as inhibition of copper-mediated LDL oxidation at 3 x 10 '-6 M by FPLC method. The settings on record: TDE = time-dependent effect.
Assay [3] can be described thus: Antioxidant activity against copper-mediated LDL oxidation assessed as oxidized LDL type D level at 3 x 10 '-6 M by FPLC method.
Assay [4] can be described thus: Antioxidant activity against copper-mediated LDL oxidation assessed as oxidized LDL type C level at 3 x 10 '-6 M by FPLC method.
For assay [5], the system named is Oryctolagus cuniculus. As to the kind of experiment: Antioxidant activity against copper-induced LDL oxidation in Watanabe Oryctolagus cuniculus (rabbit) assessed as time duration of protection at 50 mg/kg, po administered as single dose.
Assay [6] in a line: Antioxidant activity against copper-mediated LDL oxidation assessed as native LDL type B level at 3 x 10 '-6 M by FPLC method.
The nature of assay [7]: Antioxidant activity assessed as inhibition of copper-mediated LDL oxidation by FPLC method.
Assay [8] in a line: Antioxidant activity against copper-mediated LDL oxidation assessed as oxidized LDL type E level at 3 x 10 '-5 M by FPLC method.
Assay [9] has as its system Oryctolagus cuniculus. As to the kind of experiment: Antioxidant activity against copper-induced LDL oxidation in Watanabe Oryctolagus cuniculus (rabbit) assessed as time duration of protection at 250 mg/kg, po administered as single dose.
Assay [10] can be described thus: Antioxidant activity against copper-mediated LDL oxidation assessed as oxidized LDL type D level at 3 x 10 '-5 M by FPLC method.

Take `CC1/C(=C\c2cc(C(C)(C)C)c(O)c(C(C)(C)C)c2)C(=O)c2cc3oc(=O)n(C)c3cc21` (configuration not stated): in assay [1], the Ratio was 10. The Activity result was “tde” in assay [2]; 8% in [3]; 8% in assay [4]; 84% in assay [6]; “Dose-dependent effect” in [7]. The Time in assay [5] was determined as 48 h. The IC50 in assay [7] is 3 µM.
On to `CC(C)(Sc1cc(C(C)(C)C)c(O)c(C(C)(C)C)c1)Sc1cc(C(C)(C)C)c(O)c(C(C)(C)C)c1` [PROBUCOL], for which the values for the Activity in assay [8] and in assay [10] were 52% and 48%, respectively. In addition, in assay [9], the Time was 48 h. For the same compound, the IC50 in [7] turned out to be 30 µM.
